# Source: patent US20250161311A1, “SMALL MOLECULE DIRECTED URINARY BLADDER TISSUE REGENERATION” (Northwestern University, priority 2022, published 2025)
# Where “and” joins values, the source holds several entries; their conditions need not be identical. Identical values can stand only once.
# Tests used:
# [1] = system: primary human UCs; assay: SR1 treatment of primary human urothelial cells (UCs) in vitro, AhR/Ki-67 co-staining and manual counting; assay type: cell-based; settings: for peak number of nAhR+UCs: D7, means±SE
# Protocol: SR1 Treatment of UCs in vitro Equivalent numbers of primary human UCs were treated once with SR1 (150 nM, 200 nM, 250 nM, or untreated) and allowed to grow in culture for 13 days. […] An assortment of organ specific stem cells initially maintain a high nucleus/cytoplasm ratio which gradually decreases as the cell differentiates.
# [2] = system: regenerated bladder tissue; assay: Regenerated bladder tissue muscle content (Trichrome) and urothelium width after cystectomy and POC scaffold augmentation; assay type: in vivo, nude rats; settings: 10 weeks post-augmentation, means±SE
# Protocol: SR1 Induces Bladder Tissue Regeneration in vivo—In the following in vivo studies, nude rats underwent an approximate 60-70% bladder cystectomy and were augmented with a POC scaffold and then: 1) instilled with saline (Saline); 2) instilled with 300 nM SR1 (SR1:1×/week for 2 weeks); or 3) seeded with human MSC/CD34+HSCs (Cell-Seeded). Animals were sacrificed 10 weeks post-augmentation. The inventors have developed, characterized, and successfully utilized CBBs (POC) in bladder regenerative settings over the last 10 years. The inventors' established human MSC/CD34+HSC seeded POC scaffold bladder augmentation model was utilized in this study to directly compare specific regenerative bladder biological metrics against SR1 treated animals to determine whether SR1 could be used in lieu of MSCs and CD34+HSCs for bladder tissue regeneration. Muscle to collagen ratios are indicative of overall bladder tissue regeneration. […] Normal bladder tissue has an approximate 1:1 to muscle to collagen. There was no statistical difference with regards to muscle regeneration between the two groups. […] This included abnormal voiding, incontinence and subsequent infection, bladder distension, ureteral or renal dysfunction, and […]. […]
# [3] = system: regenerated bladder tissue; assay: Bladder tissue vascularization and peripheral nerve regeneration in vivo (IF staining); parameters: species or system nude rats; settings: 10 weeks post-augmentation
# Protocol: SR1 Induces Bladder Tissue Regeneration in vivo—In the following in vivo studies, nude rats underwent an approximate 60-70% bladder cystectomy and were augmented with a POC scaffold and then: 1) instilled with saline (Saline); 2) instilled with 300 nM SR1 (SR1:1×/week for 2 weeks); or 3) seeded with human MSC/CD34+HSCs (Cell-Seeded). Animals were sacrificed 10 weeks post-augmentation. The inventors have developed, characterized, and successfully utilized CBBs (POC) in bladder regenerative settings over the last 10 years. The inventors' established human MSC/CD34+HSC seeded POC scaffold bladder augmentation model was utilized in this study to directly compare specific regenerative bladder biological metrics against SR1 treated animals to determine whether SR1 could be used in lieu of MSCs and CD34+HSCs for bladder tissue regeneration. Bladder instillation of SR1 promoted vascularization of augmented bladders along the periphery and core of grafts. […] The level of tissue vascularization may be increased by changing the concentration of SR1 instilled and/or the dosing regimen.
# [4] = system: rat bladders; assay: Rat bladder urodynamic studies (UDS); assay type: in vivo, nude rats; settings: for bladder compliance: compliant >60%; for leak point pressure (LPP): normal rat ~40
# Protocol: SR1 Induces Bladder Tissue Regeneration in vivo—In the following in vivo studies, nude rats underwent an approximate 60-70% bladder cystectomy and were augmented with a POC scaffold and then: 1) instilled with saline (Saline); 2) instilled with 300 nM SR1 (SR1:1×/week for 2 weeks); or 3) seeded with human MSC/CD34+HSCs (Cell-Seeded). Animals were sacrificed 10 weeks post-augmentation. The inventors have developed, characterized, and successfully utilized CBBs (POC) in bladder regenerative settings over the last 10 years. The inventors' established human MSC/CD34+HSC seeded POC scaffold bladder augmentation model was utilized in this study to directly compare specific regenerative bladder biological metrics against SR1 treated animals to determine whether SR1 could be used in lieu of MSCs and CD34+HSCs for bladder tissue regeneration. Rat Bladder Urodynamic Studies (UDS) Rat bladders were filled with saline until a bladder contraction occurred (pre- and 10 weeks post-augmentation). Bladder pressures rose during the filling until bladder contractions occurred at intravesical pressures of 25-40 cm H2O. Saline instilled animals led to a slight decrease in voiding pressures and decreased bladder compliance (FIG. 4A). SR1 instilled animals led to a decrease in intravesical pressures during voiding from 40 to 25 cm H2O (pre-augmentation to post-augmentation, respectively) with increased bladder compliance. […] With regards to leak point pressures (LPP); Saline, SR1 and Cell-Seeded groups (pre/post aug) were: 39.49±1.35/46.48±2.42; 39.66±0.81/37.1±1.47; 38.6±1.41/35.5±2.40 cm H2O, respectively. Compliance values for the same groups were: 68.77±2.49/39.3±8.55; 69.57±1.95/72.38±3.13; 46.23±12.9/89.59±1.32 percent, respectively. Normal LPP for rat is ˜40 cm H2O and compliant bladders are defined at >60%. Percent bladder capacity at 10 weeks was also measured (FIG. 4B).
# [5] = In vitro release profile of SR1 coupled to POC scaffolds, measured by spectroscopy; assay type: physicochemical
# Protocol: SR1 was coupled to POC (poly 1,8 octane diol co-citrate) scaffolds and its in vitro release profile was measured by spectroscopy, based upon the aromatic ring structures contained within SR1 (FIG. 5A). […] For pilot in vivo studies, rats underwent an ˜70% cystectomy followed by augmentation with POC or POC/SR1 (1 mM SR1). POC animals were instilled with saline once at the beginning of the study and all animals were euthanized at 4 weeks post-augmentation. […] Therefore, the inventor concludes that coupling of SR1 to a scaffold, e.g., a solid support, is an effective means of delivery of SR1 to subjects in need thereof.
compound,measurement,setting,value
"CC(C)n1cnc2c(NCCc3ccc(O)cc3)nc(-c3csc4ccccc34)nc21 [SR1, stemregenin 1]",peak number of nAhR+UCs,"[1]; 150 nM SR1, treated once",159.75±8.44 cells
same,peak number of nAhR+UCs,"[1]; 200 nM SR1, treated once",310.75±28.73 cells
same,peak number of nAhR+UCs,"[1]; 250 nM SR1, treated once",342.75±20.97 cells
same,expansion of nAhR+/Ki-67+UCs compared to untreated,[1]; D7,~6 ×
same,UCs with higher nucleus/cytoplasm ratios,"[1]; nAhR+UCs, D7, 200 nM",modest increase
same,muscle content of regenerated bladder tissue,[2]; SR1 300 nM instilled 1×/week for 2 weeks,~50% and 47.00±1.81%
same,urothelium width,[2]; unmanipulated rats 50-70 μm,52.98±2.55 μm
same,vascularization of regenerated bladder tissue,[3]; means±SE,3.60±0.24%
same,peripheral nerve regeneration (βIII tubulin IF staining),[3]; core and throughout the graft,abundance of peripheral nerve regeneration
same,intravesical pressure during voiding,[4]; 10 weeks post-augmentation,25 cm H2O
same,bladder compliance,[4]; 10 weeks post-augmentation,72.38±3.13%
same,leak point pressure (LPP),[4]; 10 weeks post-augmentation,37.1±1.47 cm H2O
same,intravesical pressure during voiding,[4]; pre-augmentation (baseline),40 cm H2O
same,bladder compliance,[4]; pre-augmentation (baseline),69.57±1.95%
same,leak point pressure (LPP),[4]; pre-augmentation (baseline),39.66±0.81 cm H2O
same,release profile of SR1 from POC scaffolds,"[5]; 1 or 2 mM starting concentrations, over 30 days, compared to POC scaffolds in saline",gradual release
same,"cumulative release of SR1 from POC scaffolds, fold higher with 2 mM SR1","[5]; 30 day time point, 2 mM versus 1 mM starting concentration",~1.4 ×
